Patent US20150037341A1, “Diagnostic and Therapeutic Method” (Plysackaridforskning i Uppsala AB, priority 2011, published 2015)
“Also recorded” adds a separate entry of the source. Each block holds one compound with its values, some of them ahead of it.

What was measured:
[1] = biological target: T1, recombinant human WT TTR (Homo sapiens, UniProt P02766); assay: Thioflavin T (ThT) fluorescence assay of TTR fibrillization in vitro; format: biochemical
T1 construct: made in house; host or cells: bacteria
Protocol: (§1) (A, B) The TTR dissolved in phosphate buffer (50 μM, pH 2.7) was incubated alone or with different heparin or HS (12 μM) at 37° C. for 48 h. After incubation the samples were mixed with ThT and fluorescence was measured. Data shown represent triplicate experiments (means±SEM). (C) TTR (500 μM) incubated with heparin (0, 5 or 20 μM) under the same conditions were analyzed with native-PAGE as described in Methods. […] The fibrils migrated in the stacking gel is not shown. (D) Microscopic analysis of the TTR after incubation with heparin. The sample was spotted on a glass and stained with Congo red. Images were taken under fluorescent light (Original magnification: 20×; Scale bar: 5 μm) and polarized light (insert).
(§2) Recombinant wild-type TTR was expressed in bacteria and purified as described previously (Furuya et al. (1991) Biochemistry 30:2415-2421). The purified protein was dissolved in 20 mM phosphate buffer-citric acid (pH 2.7, 3.5, 4.5 or 7.4) to a final concentration of 50 μM for Thioflavin T fluorescence or 500 μM for native-PAGE. Heparin (3H-labeled or unlabeled) and HS were added to the TTR solution to the concentrations as indicated in the respective figure legend. The samples were incubated at 37° C. for the time period as specified.
After incubation, 5 μl of the sample was mixed with ThT in water to a final concentration of 20 μM ThT. The mixture was transferred to a flat bottom-black 96-well plate (Grainer) and the fluorescence was measured at excitation- and emission wavelength of 440 and 480 nm, respectively (Gain=55, FARcyte instruments). Samples aggregated at different pHs were adjusted to neutral pH after completed incubation prior to ThT staining. The experiments were run in duplicate or triplicate.

[2] = biological target: T2, dissociated TTR immobilized onto a Biacore sensor chip (Homo sapiens, UniProt P02766); assay: Surface plasmon resonance (Biacore), heparin/HS over immobilized TTR; format: binding
T2 construct: made in house; host or cells: bacteria
Protocol: (A) Dissociated TTR was immobilized onto a Biacore sensor chip and heparin (10 μM) was allowed to interact with the immobilized TTR in neutral or in mildly acidic conditions. (B) HS II (10 μM) binding to TTR at different pH was monitored and the response for each sample is expressed as response units (RU). […] (C) TTR (50 μM) incubated with heparin or HS II for 7 days at pH 5.0 or pH 7.4 was analyzed by ThT fluorescence. Data represent triplicate experiments (means±SEM).
Dissociated TTR was immobilized onto a Biacore sensor chip. Heparin (A), HS II (B) or HS I (C) were injected in a concentration series (ranging from 0.001-70 μM) over the surface at pH 5.0. The response for each concentration was measured at the steady-state region of the curve. The apparent equilibrium dissociation constant (KD) was calculated by plotting the response at steady-state for each concentration versus heparin/HS concentration. The data were fitted to the equation: Response=(Rmax*C)/(KD+C), where C is the concentration of heparin/HS. Two analyte flow rates (20 and 30 μl/min) were tested to assess possible effects of mass transport limitations in the system. […] The presented values are average value of three independent experiments.
(A) Equal amount of dissociated or native protein was immobilized onto a Biacore sensor chip and HS II was allowed to interact with the immobilized TTR at pH 5.0. (B) The values of the HS II-TTR interaction signal were obtained by repeated experiments using three chips with different ligand densities (250-3000 RU). The signals were normalized to a ligand density of 1000 RU and average value is shown. Statistical analysis was done by t test.
Interaction of TTR with heparin/HS was evaluated using a Biosensor system (Biacore2000). TTR was dissociated in acidic buffer (pH 2.7) and then diluted into a 50 mM NaAc (pH 5.0) coupling buffer and immobilized onto a CM5 sensor chip to a level of 3000 RU using an amine-coupling kit (GE Healthcare, Uppsala, Sweden). For binding and kinetic analysis, heparin or HS was injected (concentrations indicated in figure legend) over the surface and equilibrated at different pH. The surface was regenerated after each sample with a 30 s wash step of 0.5 M NaCl. All obtained sensorgrams were double-reference subtracted in Biacore evaluation software 2.0, using the reference flow cell and buffer blank sample.

[3] = test system: TTR transgenic flies (engineered mutant form of human TTR); assay: Transgenic Drosophila TTR-model, flies reared on supplemented medium; format: in vivo, Drosophila melanogaster; details: medium supplemented 10 mg/ml, heads collected after 9-17 days
Protocol: (A) Eggs of TTR transgenic flies were cultured on regular medium (control) or medium supplemented with low molecular weight heparin (Klexane®) or heparin. Heads were collected 9-17 days posteclosion and lysed in saline. The extract was analyzed by ThT staining. Values represent the average of duplicate experiments. (B) The presence of heparin in the Drosophila head lysate was analyzed with dot-blot stained Alcian blue. Heparin (25 ng and 50 ng) was used as positive control. Twenty-five microliters of the lysate (same samples as used for ThT analysis) was applied to a nylon membrane (Hybond N+, GE Healthcare) and stained with Alcian blue (0.5% Alcian Blue dissolved in 25% isopropanol and 3% acetic acid).
FIG. 14 illustrates the detection of heparin-TTR co-localization in TTR transgenic flies (A-G) Confocal microscopy analysis of cryo-sections prepared from Drosophila heads. (A) Overview image of a Drosophila head stained with DAPI (blue), showing the brain (Br), optical lobes (OI) and retina (Re). […]
The transgenic Drosophila melanogaster strain (Dhet TTR-A) overexpressing a mutant TTR was generated as described (7). […] The fluorescence was measured as described above. Non-TTR-transgenic flies were used as control to subtract background fluorescence. […]

[4] = biological target: T3, recombinant wild-type TTR (Homo sapiens, UniProt P02766); assay: Native-PAGE of TTR incubated with heparin (Coomassie, Alcian blue, 3H counting of gel sections); format: biochemical
T3 construct: made in house; host or cells: bacteria
Protocol: TTR dissolved in phosphate buffer (pH 2.7) was co-incubated with heparin (mixture of ^3H-labeled and non-labeled) at 37° C. for 48 h. (A) The TTR-heparin co-incubated sample and heparin alone were separated with native-PAGE and stained with Alcian blue. (B) An identical set of samples was separated on the native-PAGE as above, and each lane was cut into six sections (as illustrated in A). The gel slices were incubated for 2 hr in H2O to extract the heparin. The radioactivity was measured by scintillation counting.
TTR dissolved in phosphate buffer (pH 2.7) was incubated without heparin at 37° C. for 48 h. Heparin (mixture of ^3H-labeled and nonlabeled) was then added and the TTR-heparin sample was incubated for an additional hour at 37° C. The sample was thereafter separated by native-PAGE and the gel was cut into 6 sections as illustrated in FIG. 4A. Radioactivity in each section was measured by scintillation counting. Data represents triplicate experiments (mean±SEM).
as §2
After incubation, 10 μl of the samples was mixed with 2.5 μl of a 5× sample buffer (0.3 M Tris-HCl, pH 6.8, 0.05% bromophenol blue, 50% glycerol) and loaded onto a 10% polyacrylamide gel without SDS. […] For quantification of ^3H-labeled heparin, the corresponding lanes in the gel were cut into six sections including the stacking gel (see FIG. 4A) that were transferred to a scintillation vial in 3 ml of H2O. After 2 hr incubation, 2 ml of scintillation cocktail was added and the radioactivity was measured.

[5] = biological target: T4, full-length TTR (native, dissociated or aggregated) (Homo sapiens, UniProt P02766); assay: Nitrocellulose-filter trapping of 3H-labeled heparin bound to full-length TTR; format: binding
T4 construct: Equal mole of TTR-peptides or full-length protein (with or without acidic dissociation); made in house; host or cells: bacteria
Protocol: (§3) (A) TTR amino acid sequence where histidine “(+)” and other basic amino acids “+” are marked. (B) Equal mole of TTR-peptides or full-length protein (with or without acidic dissociation), were incubated with ^3H-labeled heparin (1500 cpm) at pH 5.0. The amount of ^3H-labeled heparin bound to the peptides was analyzed using a nitrocellulose-filter trapping method.
Recombinant wild type TTR (500 μM) was dissolved in phosphate buffer (pH 7.4 or 2.7) and incubated at 37° C. for the time period as indicated. (a) The incubated samples were analyzed for their degree of aggregation with native PAGE. (b) The samples were incubated with ^3H-labelled heparin for 30 min at room temperature. The amount of heparin bound to the samples with different aggregation degree was analyzed by a nitrocellulose-filter trapping method.

[6] = biological target: T3, recombinant wild-type TTR; assay: Congo red staining of TTR after incubation with heparin; format: biochemical; details: fluorescence and polarized light microscopy
Protocol: as §1

[7] = Nitrocellulose-filter trapping of 3H-labeled heparin bound to TTR peptides; format: binding; details: pH 5.0, 3H-labeled heparin 1500 cpm
Protocol: as §3
To characterize the TTR-heparin interaction, we incubated TTR and its peptide fragments with ^3H-heparin. The binding was analyzed by a nitrocellulose-filter trapping method (18). […] This heparin-binding peptide contains three basic amino acids, including a histidine that likely contributed to the pH dependency seen in the TTR-heparin/HS interaction. This selective binding propy was further verified by SPR analysis (FIG. 9).

[8] = SPR analysis of TTR peptides binding to immobilized heparin; details: pH 5.0, peptide conc. 25 μg/ml, flow rate 20 μl/min
Protocol: Heparin was immobilized onto a Biacore sensor chip (CM5) using the surface thiol coupling kit (GE Healthcare). Peptides derived from regions on the TTR sequence (FIG. 5A) containing a histidine residue (24-35, 51-61 and 84-94), were allowed to interact with the heparin surface at pH 5.0 (peptide conc. 25 μg/ml; flow rate 20 μl/min).

- ThT fluorescence (fibril content) ([1]; TTR 50 μM, pH 2.7, 37° C., 48 h, in the presence of heparin): 8000 AU
- Effect on TTR fibrillization (ThT fluorescence) ([1]; pH 2.7 and 5.0): greatly promoted TTR fibrillization
- Binding to dissociated TTR (SPR response) ([2]; pH 5.0 (mildly acidic), 10 μM): observed
- Affinity of TTR for heparin relative to HS II ([2]; pH 5.0, apparent KD from steady state): 10 fold
- Recovery of 3H-labeled heparin in gel sections after co-incubation with TTR ([4]; pH 2.7, 37° C., 48 h co-incubation): substantially recovered in section 1
- Binding of 3H-labelled heparin to aggregated TTR ([5]; TTR 500 μM pre-incubated at pH 7.4 or 2.7, heparin 30 min at room temperature): binds to aggregated TTR
- Binding of 3H-labeled heparin to dissociated versus native full-length TTR ([5]; pH 5.0): preferentially bound to dissociated TTR
- Congo red staining of fibrils [6]: Congo red positive fibrils
Compound: heparin
- Effect on TTR fibrillization/aggregation (ThT fluorescence) ([1]; TTR 50 μM, pH 2.7, heparin or HS 12 μM, 37° C., 48 h): prompted TTR aggregation, forming substantial amounts of amyloid-like fibrils
- TTR amyloid-like fibril formation in fly head lysate (ThT fluorescence) [3]: generated ThT-positive amyloid-like fibrils; also recorded: promoted formation of TTR amyloid-like fibrils
- Migration pattern of TTR aggregates on native-PAGE ([4]; TTR 500 μM, heparin 5 or 20 μM, pH 2.7, 37° C., 48 h): substantial macromolecular TTR aggregates migrating in the top of the gel
- Interaction of 3H-labeled heparin with pre-aggregated TTR (gel sections) ([4]; TTR aggregated 48 h without heparin, then heparin for 1 h at 37° C.): no or very little heparin interacted with aggregated TTR

- Binding to surface immobilized with dissociated TTR (SPR) ([2]; Thioflavin T 50 μM): no binding
- Binding to surface immobilized with aggregated TTR (SPR) ([2]; Thioflavin T injection): significant binding
Compound: Cc1ccc2c(c1)sc(-c1ccc(N(C)C)cc1)[n+]2C.[Cl-] [Thioflavin T]

Compound: 24-35 peptide containing the V30M mutation: TTR 24-35 peptide with the V30M mutation associated with familial amyloid neuropathy (PAINVAMHVFRK; UniProt P02766 44-55, looked up, variant V30M)
- Binding of 3H-labeled heparin to the peptide [7]: substantially lower binding to heparin compared to the WT peptide

- Binding of 3H-labeled heparin to the peptide [7]: bound to heparin
- Interaction of the peptide with the heparin surface (SPR) [8]: interacted with heparin
Compound: PAINVAVHVFRK [peptide of aa 24-35, Synthesized peptide of aa 24-35 of TTR]
